Experiment [1] has as its target Beta-3 adrenergic receptor (Homo sapiens, UniProt P13945).
The target in another experiment is T1, D(4) dopamine receptor (Homo sapiens, UniProt P21917).
T1 sequence (P21917 whole entry): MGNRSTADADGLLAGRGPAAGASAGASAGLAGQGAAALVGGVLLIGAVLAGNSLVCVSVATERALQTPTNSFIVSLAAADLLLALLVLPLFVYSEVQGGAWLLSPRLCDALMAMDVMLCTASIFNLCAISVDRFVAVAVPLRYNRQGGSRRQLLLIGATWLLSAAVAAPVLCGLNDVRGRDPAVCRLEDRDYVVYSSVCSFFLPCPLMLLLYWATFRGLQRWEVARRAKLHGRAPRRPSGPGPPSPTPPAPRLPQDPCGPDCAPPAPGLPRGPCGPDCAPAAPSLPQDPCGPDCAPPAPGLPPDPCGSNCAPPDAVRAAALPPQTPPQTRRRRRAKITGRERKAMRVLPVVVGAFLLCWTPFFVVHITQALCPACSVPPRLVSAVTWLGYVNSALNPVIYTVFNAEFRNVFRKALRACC

The target of a further experiment is Estrogen receptor beta (Homo sapiens, UniProt Q92731).
Sequence of Estrogen receptor beta (Q92731 whole entry): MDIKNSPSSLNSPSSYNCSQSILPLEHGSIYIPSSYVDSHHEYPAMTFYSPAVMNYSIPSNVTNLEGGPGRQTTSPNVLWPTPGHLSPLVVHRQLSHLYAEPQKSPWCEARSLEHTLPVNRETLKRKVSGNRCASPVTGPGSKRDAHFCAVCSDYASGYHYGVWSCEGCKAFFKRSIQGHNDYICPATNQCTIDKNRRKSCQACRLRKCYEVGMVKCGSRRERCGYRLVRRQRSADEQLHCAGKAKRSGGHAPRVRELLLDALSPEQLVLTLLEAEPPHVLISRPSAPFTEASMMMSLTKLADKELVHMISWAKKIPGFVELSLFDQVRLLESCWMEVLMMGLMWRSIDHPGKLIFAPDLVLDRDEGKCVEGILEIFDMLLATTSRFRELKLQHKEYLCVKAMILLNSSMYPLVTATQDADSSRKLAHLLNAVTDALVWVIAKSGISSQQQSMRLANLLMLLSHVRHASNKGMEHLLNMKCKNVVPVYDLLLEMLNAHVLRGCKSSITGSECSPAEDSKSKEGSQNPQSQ
For experiment [2], the target named is Hydroxycarboxylic acid receptor 2 (Homo sapiens, UniProt Q8TDS4).
Sequence of Hydroxycarboxylic acid receptor 2 (Q8TDS4 whole entry): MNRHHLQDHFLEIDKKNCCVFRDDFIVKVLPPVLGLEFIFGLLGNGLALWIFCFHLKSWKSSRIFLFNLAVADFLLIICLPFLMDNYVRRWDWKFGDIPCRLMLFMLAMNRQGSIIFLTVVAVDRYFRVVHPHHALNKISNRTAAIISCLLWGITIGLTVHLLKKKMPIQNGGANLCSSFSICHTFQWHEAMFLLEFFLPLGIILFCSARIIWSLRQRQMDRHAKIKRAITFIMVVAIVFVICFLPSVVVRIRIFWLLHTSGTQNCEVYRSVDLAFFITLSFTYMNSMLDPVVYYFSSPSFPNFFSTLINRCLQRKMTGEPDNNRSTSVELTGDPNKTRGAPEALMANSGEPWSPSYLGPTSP
Another experiment concerns the target Substance-P receptor (Homo sapiens, UniProt P25103).
In experiment [3] the target is T2, 5-hydroxytryptamine receptor 1A (Homo sapiens, UniProt P08908).
T2 sequence (P08908 whole entry): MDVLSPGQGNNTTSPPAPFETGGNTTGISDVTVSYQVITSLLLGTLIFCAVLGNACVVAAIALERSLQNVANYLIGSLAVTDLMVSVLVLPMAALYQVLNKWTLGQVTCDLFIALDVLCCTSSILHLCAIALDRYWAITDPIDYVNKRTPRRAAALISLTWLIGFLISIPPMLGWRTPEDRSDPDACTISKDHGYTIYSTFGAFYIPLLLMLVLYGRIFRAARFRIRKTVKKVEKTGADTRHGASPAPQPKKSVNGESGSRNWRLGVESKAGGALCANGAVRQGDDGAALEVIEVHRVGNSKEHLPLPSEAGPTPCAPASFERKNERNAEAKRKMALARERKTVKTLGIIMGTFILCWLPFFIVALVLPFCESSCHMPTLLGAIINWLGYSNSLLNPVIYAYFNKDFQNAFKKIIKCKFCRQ

Experiment [4] deals with T3, Muscarinic acetylcholine receptor M2 (Homo sapiens, UniProt P08172).
T3 sequence (P08172 whole entry): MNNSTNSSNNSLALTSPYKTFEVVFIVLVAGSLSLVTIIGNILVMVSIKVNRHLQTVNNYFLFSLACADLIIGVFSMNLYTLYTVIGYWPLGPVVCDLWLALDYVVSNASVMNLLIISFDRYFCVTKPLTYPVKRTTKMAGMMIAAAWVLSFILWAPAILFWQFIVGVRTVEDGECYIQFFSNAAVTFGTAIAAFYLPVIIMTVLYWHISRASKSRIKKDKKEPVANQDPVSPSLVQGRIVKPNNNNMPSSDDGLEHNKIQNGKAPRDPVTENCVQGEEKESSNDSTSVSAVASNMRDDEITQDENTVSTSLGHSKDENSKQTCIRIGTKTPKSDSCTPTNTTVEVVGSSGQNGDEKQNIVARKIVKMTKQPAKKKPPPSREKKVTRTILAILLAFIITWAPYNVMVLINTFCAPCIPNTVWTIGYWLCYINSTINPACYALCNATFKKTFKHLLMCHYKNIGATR

In experiment [5] the target is T4, Muscarinic acetylcholine receptor M1 (Homo sapiens, UniProt P11229).
T4 sequence (P11229 whole entry): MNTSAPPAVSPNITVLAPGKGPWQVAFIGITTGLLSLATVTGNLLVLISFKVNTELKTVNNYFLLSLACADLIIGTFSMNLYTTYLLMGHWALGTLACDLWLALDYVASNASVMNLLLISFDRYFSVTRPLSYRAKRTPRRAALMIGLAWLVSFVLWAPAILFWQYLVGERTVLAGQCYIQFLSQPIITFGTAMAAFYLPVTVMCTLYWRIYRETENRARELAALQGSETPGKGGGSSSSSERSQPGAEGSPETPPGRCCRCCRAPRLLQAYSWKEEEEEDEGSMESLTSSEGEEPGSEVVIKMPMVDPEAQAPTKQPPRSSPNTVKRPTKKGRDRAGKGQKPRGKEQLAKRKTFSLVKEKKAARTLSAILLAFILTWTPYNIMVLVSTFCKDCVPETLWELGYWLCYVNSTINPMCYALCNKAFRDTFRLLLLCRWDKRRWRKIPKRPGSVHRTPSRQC
Format: functional, cell-based.

Experiment [6] addresses 5-hydroxytryptamine receptor 2A (Homo sapiens, UniProt P28223).
Experiment [7] has as its target T5, Muscarinic acetylcholine receptor M5 (Homo sapiens, UniProt P08912).
T5 sequence (P08912 whole entry): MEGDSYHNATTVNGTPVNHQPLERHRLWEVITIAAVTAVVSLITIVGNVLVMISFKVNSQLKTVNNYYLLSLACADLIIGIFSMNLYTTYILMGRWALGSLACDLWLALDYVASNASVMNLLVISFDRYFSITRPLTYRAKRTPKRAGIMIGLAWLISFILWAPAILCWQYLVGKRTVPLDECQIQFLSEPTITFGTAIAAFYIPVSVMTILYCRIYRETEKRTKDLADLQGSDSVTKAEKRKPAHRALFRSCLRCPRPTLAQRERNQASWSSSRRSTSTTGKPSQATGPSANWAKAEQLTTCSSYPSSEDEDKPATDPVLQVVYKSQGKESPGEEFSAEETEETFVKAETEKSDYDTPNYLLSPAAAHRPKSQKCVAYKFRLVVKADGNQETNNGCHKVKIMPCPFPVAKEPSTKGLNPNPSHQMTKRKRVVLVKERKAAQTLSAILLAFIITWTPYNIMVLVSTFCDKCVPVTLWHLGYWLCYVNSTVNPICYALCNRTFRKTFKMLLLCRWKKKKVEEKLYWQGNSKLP

Another experiment addresses Cannabinoid receptor 1 (Homo sapiens, UniProt P21554). Format: functional.
Note: assay procedure not described here.

Sequence of Cannabinoid receptor 1 (P21554 whole entry): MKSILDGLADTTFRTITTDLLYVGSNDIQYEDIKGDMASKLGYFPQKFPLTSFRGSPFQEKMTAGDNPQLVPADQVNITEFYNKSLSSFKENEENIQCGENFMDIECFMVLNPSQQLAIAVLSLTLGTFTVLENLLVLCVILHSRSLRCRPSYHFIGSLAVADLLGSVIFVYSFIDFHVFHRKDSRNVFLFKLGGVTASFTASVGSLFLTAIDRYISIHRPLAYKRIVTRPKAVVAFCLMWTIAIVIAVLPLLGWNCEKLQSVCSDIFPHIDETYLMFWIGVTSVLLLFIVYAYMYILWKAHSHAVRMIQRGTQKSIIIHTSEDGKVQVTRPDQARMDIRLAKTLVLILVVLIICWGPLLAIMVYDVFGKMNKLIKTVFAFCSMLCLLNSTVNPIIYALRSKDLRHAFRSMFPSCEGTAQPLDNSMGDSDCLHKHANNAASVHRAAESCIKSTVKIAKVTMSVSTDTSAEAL
Sequence of 5-hydroxytryptamine receptor 2A (P28223 whole entry): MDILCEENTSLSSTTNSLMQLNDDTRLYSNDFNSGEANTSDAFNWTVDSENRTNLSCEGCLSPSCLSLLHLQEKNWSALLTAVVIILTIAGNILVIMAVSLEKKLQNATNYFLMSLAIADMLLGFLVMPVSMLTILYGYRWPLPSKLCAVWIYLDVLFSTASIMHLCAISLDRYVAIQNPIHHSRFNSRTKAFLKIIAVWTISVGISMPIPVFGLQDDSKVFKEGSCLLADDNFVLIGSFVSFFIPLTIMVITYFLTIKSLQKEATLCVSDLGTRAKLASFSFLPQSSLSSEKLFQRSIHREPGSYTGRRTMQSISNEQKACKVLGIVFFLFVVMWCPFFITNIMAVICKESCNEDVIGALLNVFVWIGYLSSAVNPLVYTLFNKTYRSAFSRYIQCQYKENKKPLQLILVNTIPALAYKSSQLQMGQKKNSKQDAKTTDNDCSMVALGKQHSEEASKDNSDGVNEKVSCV
Sequence of Substance-P receptor (P25103 whole entry): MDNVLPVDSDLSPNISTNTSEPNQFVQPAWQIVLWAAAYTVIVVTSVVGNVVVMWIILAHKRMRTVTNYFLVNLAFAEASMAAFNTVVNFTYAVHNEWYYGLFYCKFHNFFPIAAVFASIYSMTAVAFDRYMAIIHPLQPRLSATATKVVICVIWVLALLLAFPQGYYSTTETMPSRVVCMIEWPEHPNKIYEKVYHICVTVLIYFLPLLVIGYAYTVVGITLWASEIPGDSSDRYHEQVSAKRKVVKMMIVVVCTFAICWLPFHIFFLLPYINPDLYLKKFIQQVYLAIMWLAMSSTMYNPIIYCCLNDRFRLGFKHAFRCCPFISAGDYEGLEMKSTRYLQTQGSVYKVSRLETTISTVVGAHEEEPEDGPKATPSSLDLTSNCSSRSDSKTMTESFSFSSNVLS
Sequence of Beta-3 adrenergic receptor (P13945 whole entry): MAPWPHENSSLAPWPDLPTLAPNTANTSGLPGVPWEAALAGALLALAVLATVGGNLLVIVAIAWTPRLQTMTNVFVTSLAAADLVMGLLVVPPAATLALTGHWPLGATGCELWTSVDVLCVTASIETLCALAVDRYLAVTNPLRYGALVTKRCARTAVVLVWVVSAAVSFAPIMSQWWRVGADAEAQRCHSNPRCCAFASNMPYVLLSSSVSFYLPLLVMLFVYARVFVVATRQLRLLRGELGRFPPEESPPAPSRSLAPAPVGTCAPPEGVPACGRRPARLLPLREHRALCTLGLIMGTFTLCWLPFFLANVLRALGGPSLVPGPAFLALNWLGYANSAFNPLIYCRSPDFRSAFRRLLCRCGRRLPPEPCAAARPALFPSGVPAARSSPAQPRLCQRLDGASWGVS

The AC50 is the midpoint of the concentration-response curve, whichever way the signal moves. A higher AC50 goes with weaker potency. For `CCC[C@@H]1C[C@@H](C(=O)N[C@@H]([C@H]2O[C@H](SC)[C@H](O)[C@@H](O)[C@H]2O)[C@H](C)Cl)N(C)C1` [CLINDAMYCIN], the AC50 in [1] is over 30 µM; at D(4) dopamine receptor, over 10 µM; on Estrogen receptor beta, over 30 µM; in experiment [2], over 10 µM; on Substance-P receptor it was over 10 µM; in experiment [3] it was over 10 µM. Besides, the AC50 in experiment [4] was over 10 µM.
With `CC(C(=O)O)c1ccc(N2CC=CC2)c(Cl)c1` (stereo not given) [PIRPROFEN], the half-maximal activity concentration (AC50) is over 30 µM in experiment [1]; over 30 µM in experiment [5]; over 10 µM at D(4) dopamine receptor; over 30 µM on Estrogen receptor beta; over 10 µM in experiment [2]; over 10 µM at Substance-P receptor. In addition, the half-maximal activity concentration (AC50) in experiment [3], in experiment [4] and in experiment [6] was over 10 µM each time.
Regarding `COc1cc(Nc2c(C#N)cnc3cc(OCCCN4CCN(C)CC4)c(OC)cc23)c(Cl)cc1Cl` [BOSUTINIB], the concentration at half-maximal activity (AC50) in experiment [1] was 16.8 µM; in experiment [5], over 10 µM; in [7] it was 12.1 µM; at Cannabinoid receptor 1, over 10 µM; on D(4) dopamine receptor it was over 10 µM; at Estrogen receptor beta, over 30 µM. The AC50 at Substance-P receptor is 8 µM; in experiment [3] it was over 10 µM; in experiment [4], 6.04 µM.
As to `COc1cc2c(cc1OC)C(=O)C(CC1CCN(Cc3ccccc3)CC1)C2` (stereo not given) [DONEPEZIL], the AC50 in [1] is over 30 µM; in experiment [5], over 30 µM; in experiment [7] it was 15.4 µM; on Cannabinoid receptor 1, over 10 µM; at D(4) dopamine receptor, 0.824 µM; at Estrogen receptor beta, over 30 µM. For the same compound, the AC50 (on Substance-P receptor; in experiment [6]) was over 10 µM throughout.
On to `C#C[C@]1(O)CC[C@H]2[C@@H]3CCc4cc(O)ccc4[C@H]3CC[C@@]21C` [ETHINYL ESTRADIOL], for which the AC50 in [1] was 35.4 µM; on D(4) dopamine receptor it was over 10 µM; in [2] it was over 10 µM; at Substance-P receptor, over 10 µM; in experiment [3], over 10 µM; in experiment [4], over 10 µM.
For the compound `CN(CCOc1ccc(NS(C)(=O)=O)cc1)CCc1ccc(NS(C)(=O)=O)cc1` [DOFETILIDE], the AC50 was over 30 µM in experiment [1]; over 30 µM in experiment [5]; over 10 µM on D(4) dopamine receptor; over 10 µM in [2]; over 10 µM on Substance-P receptor; over 10 µM in [3]. The concentration at half-maximal activity (AC50) in [4] and in [6] was over 10 µM each time.
With `Oc1ncnc2[nH]ncc12` [ALLOPURINOL], the AC50 in experiment [1] was over 30 µM; at D(4) dopamine receptor, over 10 µM; on Estrogen receptor beta, over 30 µM; in experiment [2], over 10 µM; at Substance-P receptor it was over 10 µM; in [3] it was over 10 µM. Besides, in experiment [4], the AC50 was over 10 µM.
In the case of `O=C(CCCCCCC(=O)Nc1ccccc1)NO` [VORINOSTAT], the concentration at half-maximal activity (AC50) (in experiment [7]; at Cannabinoid receptor 1; at D(4) dopamine receptor; at Substance-P receptor; in experiment [3]; in [4]) was over 10 µM throughout. The compound further had an AC50 in [6] of over 10 µM.
For `CCN(CC)CCNC(=O)c1cc(Cl)c(N)cc1OC` [METOCLOPRAMIDE], the AC50 in experiment [1] was over 30 µM; on D(4) dopamine receptor, 1.16 µM; on Estrogen receptor beta, over 30 µM; in experiment [2], over 10 µM; at Substance-P receptor it was over 10 µM; in experiment [3] it was over 10 µM.
Turning to `C[C@H]1O[C@H](O[C@H]2[C@H](O)[C@@H](O)[C@@H](O[C@H]3[C@H](O)[C@@H](O)C(O)O[C@@H]3CO)O[C@@H]2CO)[C@H](O)[C@@H](O)[C@@H]1N[C@H]1C=C(CO)[C@@H](O)[C@H](O)[C@H]1O` (stereo not given in full) [ACARBOSE], the concentration at half-maximal activity (AC50) in experiment [1] was over 30 µM; in experiment [7] it was over 10 µM; at Cannabinoid receptor 1 it was over 10 µM; at D(4) dopamine receptor it was over 10 µM; at Estrogen receptor beta it was over 30 µM; at Substance-P receptor, over 10 µM. Also, the concentration at half-maximal activity (AC50) in [3] and in experiment [4] was over 10 µM each time.
